Here are results for 42 compounds from US20180273528A1 (LES LABORATOIRES SERVIER, priority 2015, published 2018).

This assay addresses T1, His-TEV-DYRK1A Kinase domain (aa127-485) (Homo sapiens, UniProt Q13627).
T1 construct: His-TEV-DYRK1A Kinase domain (aa127-485); His tag (N); TEV protease cleavage site (N)
The experiment in a line: Kinase ADP assay (ADP Hunter), DYRK1A kinase domain. It is filed as biochemical. The following applies: 20 μM ATP. As to the method: The enzyme reaction was conducted in assay buffer (pH 7.4), containing 15 mM Hepes; 20 mM NaCl; 1 mM EGTA; 10 mM MgCl2; 0.02% Tween20 and 0.1 mg/ml Bovine-y-globulin. Test compounds of the invention were added in reaction buffer in a range of concentrations for 10 minutes at 30° C. in the presence of 20 nM DYRK1A enzyme, 40 μM peptide substrate and 20 μM ATP. Detection reagents (DiscoveRx 90-0083), ADP Hunter Plus Reagent A and then ADP Hunter Plus Reagent B were added. After a following 20 minutes incubation at 30° C., ADP Hunter Plus Stop Solution was added. The fluorescence intensity was measured at 590 nm.
The term IC50 denotes the concentration that gives 50% inhibition. Take `CCCCc1nc2ccc(-c3cc(N)nc(N)c3)nc2n1C` [Example 147, 4-(2-butyl-3-methyl-3H-imidazo[4,5-b]pyridin-5-yl)pyridine-2,6-diamine]: the midpoint of inhibition, the IC50, lay at 0.021 µM.

Regarding `Cc1nc2ccc(-c3cc(N)nc(N)c3)nc2n1CCOc1ccnn1C` [Example 218, 4-(2-methyl-3-{2-[(1-methyl-1H-pyrazol-5-yl)oxy]ethyl}-3H-imidazo[4,5-b]pyridin-5-yl)pyridine-2,6-diamine], the IC50 was 0.057 µM. This IC50 lies about 2.7-fold higher than the previous one.

`Cc1nc2ccc(-c3cc(N)nc(N)c3)nc2n1CCOc1cccnc1` [Example 216, 4-{2-methyl-3-[2-(pyridin-3-yloxy)ethyl]-3H-imidazo[4,5-b]pyridin-5-yl}pyridine-2,6-diamine]: the IC50 stood at 0.029 µM.

Compound `Cc1nc2ccc(-c3cc(N)nc(N)c3)nc2n1C[C@H](C)Oc1nc(F)ccc1F` (single isomer, unassigned) [Example 192] yielded an IC50 of 0.084 µM. This IC50 is about 2.9-fold higher than that of the compound before.

Compound `Cc1nc2ccc(-c3cc(N)nc(N)c3)nc2n1[C@@H](C)COc1ccccc1` (single isomer, unassigned) [Example 105] came in with an IC50 of 0.092 µM.

`Cc1nc2ccc(-c3cc(N)nc(N)c3)nc2n1CCOc1ccccc1Cl` [Example 204, 4-{3-[2-(2-chlorophenoxy)ethyl]-2-methyl-3H-imidazo[4,5-b]pyridin-5-yl}pyridine-2,6-diamine] yielded an IC50 of 0.041 µM.

Take `COc1ccccc1O[C@H](C)Cn1c(C)nc2ccc(-c3cc(N)nc(N)c3)nc21` (single isomer, unassigned) [Example 142]: the midpoint of inhibition, the IC50, lay at 0.037 µM.

With `CCCCc1nc2ccc(-c3cc(N)nc(N)c3)nc2n1CCOc1ccccc1` [Example 146, 4-[2-butyl-3-(2-phenoxyethyl)-3H-imidazo[4,5-b]pyridin-5-yl]pyridine-2,6-diamine], the IC50 came out at 0.089 µM.

`Cc1nc2ccc(-c3cc(N)nc(N)c3)nc2n1C[C@H](C)Oc1ccc(Cl)cn1` (single isomer, unassigned) [Example 184] yielded a half-maximal inhibitory concentration (IC50) of 0.165 µM.

On to `Cc1nc2ccc(-c3cc(N)nc(N)c3)nc2n1C[C@@H](C)Oc1ccc(F)cc1` (single isomer, unassigned) [Example 130], for which 0.058 µM corresponded to half-maximal inhibition (IC50).

For the compound `Cc1nc2ccc(-c3cc(N)nc(N)c3)nc2n1C[C@H](C)Oc1ccc(Br)cn1` (single isomer, unassigned) [Example 186], inhibition was half-maximal at 0.154 µM (IC50).

Regarding `Cc1nc2ccc(-c3cc(N)nc(N)c3)nc2n1CCOc1ncccc1Br` [Example 169, 4-(3-{2-[(3-bromopyridin-2-yl)oxy]ethyl}-2-methyl-3H-imidazo[4,5-b]pyridin-5-yl)pyridine-2,6-diamine], the concentration for half-maximal inhibition (IC50) was 0.055 µM.

The compound `Cc1nc2ccc(-c3cc(N)nc(N)c3)nc2n1CCCCO` [Example 70, 4-[5-(2,6-diaminopyridin-4-yl)-2-methyl-3H-imidazo[4,5-b]pyridin-3-yl]butan-1-ol] returned an IC50 of 0.013 µM.

Turning to `Cc1nc2ccc(-c3cc(N)nc(N)c3)nc2n1C/C=C/c1ccccc1` [Example 111, 4-{2-methyl-3-[(2E)-3-phenylprop-2-en-1-yl]-3H-imidazo[4,5-b]pyridin-5-yl}pyridine-2,6-diamine], half-maximal inhibition (IC50) was put at 0.012 µM.

Compound `COc1ccc(OCCn2c(C)nc3ccc(-c4cc(N)nc(N)c4)nc32)cc1` [Example 209, 4-{3-[2-(4-methoxyphenoxy)ethyl]-2-methyl-3H-imidazo[4,5-b]pyridin-5-yl}pyridine-2,6-diamine] displayed a half-maximal inhibitory concentration (IC50) of 0.025 µM.

For `Cc1nc2ccc(-c3cc(N)nc(N)c3)nc2n1C[C@@H](C)Oc1ccc(Cl)cn1` (single isomer, unassigned) [Example 185], the IC50 stood at 0.041 µM. This IC50 is about 1.6-fold higher than that of the compound before.

As for `CCc1nc2ccc(-c3cc(N)nc(N)c3)nc2n1C` [Example 159, 4-(2-ethyl-3-methyl-3H-imidazo[4,5-b]pyridin-5-yl)pyridine-2,6-diamine], 0.043 µM corresponded to half-maximal inhibition (IC50). The IC50 values of the last two compounds are within 1.5-fold of each other.

`CCCc1nc2ccc(-c3cc(N)nc(N)c3)nc2n1CCOc1ccccc1` [Example 162, 4-[3-(2-phenoxyethyl)-2-propyl-3H-imidazo[4,5-b]pyridin-5-yl]pyridine-2,6-diamine] returned an IC50 of 0.056 µM.

`Cc1nc2ccc(-c3cc(N)nc(N)c3)nc2n1C[C@@H](C)Oc1ccccc1Cl` (single isomer, unassigned) [Example 118] returned an IC50 of 0.031 µM. This IC50 lies about 1.8-fold lower than the previous one.

The compound `Cc1nc2ccc(-c3cc(N)nc(N)c3)nc2n1CCc1cccc(OC(C)C)c1` [Example 87] displayed an IC50 of 0.017 µM.

`Cc1nc2ccc(-c3cc(N)nc(N)c3)nc2n1CCOc1ccccc1OC(C)C` [Example 214, 4-(2-methyl-3-{2-[2-(propan-2-yloxy)phenoxy]ethyl}-3H-imidazo[4,5-b]pyridin-5-yl)pyridine-2,6-diamine] yielded a half-inhibitory concentration (IC50) of 0.072 µM.

`CCCc1nc2ccc(-c3cc(N)nc(N)c3)nc2n1C` [Example 163, 4-(3-methyl-2-propyl-31-imidazo[4,5-b]pyridin-5-yl)pyridine-2,6-diamine]: 0.033 µM corresponded to half-maximal inhibition (IC50).

In turn, `Cc1ccccc1OCCn1c(C)nc2ccc(-c3cc(N)nc(N)c3)nc21` [Example 205, 4-{2-methyl-3-[2-(2-methylphenoxy)ethyl]-3H-imidazo[4,5-b]pyridin-5-yl}pyridine-2,6-diamine] displayed a concentration for half-maximal inhibition (IC50) of 0.03 µM.

Turning to `C=CCCn1c(C)nc2ccc(-c3ccnc(N)c3)nc21` [Example 239, 4-[3-(but-3-en-1-yl)-2-methyl-3H-imidazo[4,5-b]pyridin-5-yl]pyridin-2-amine], the IC50 stood at 0.068 µM. This IC50 is about 2.3-fold higher than that of the compound before.

Turning to `Cc1nc2ccc(-c3cc(N)nc(N)c3)nc2n1C[C@H](C)Oc1ccc(F)cn1` (single isomer, unassigned) [Example 178], the half-maximal inhibitory concentration (IC50) was determined as 0.176 µM.

For the compound `Cc1nc2ccc(-c3cc(N)nc(N)c3)nc2n1C[C@@H](C)Oc1ncccc1Br` (single isomer, unassigned) [Example 183], the IC50 worked out at 0.226 µM. The IC50 values of the last two compounds are within 1.5-fold of each other.

Turning to `Cc1nc2ccc(-c3cc(N)nc(N)c3)nc2n1C[C@@H](C)Oc1cccc(Br)n1` (single isomer, unassigned) [Example 181], the 50% inhibitory concentration (IC50) amounted to 0.081 µM.

On to “4-{3-[2-(2,6-dimethoxyphenoxy)ethyl]-3H-imidazo[4,5-b]pyridin-5-yl}pyridine-2,6-diamine [Example 213]”, for which the half-inhibitory concentration (IC50) stood at 0.069 µM.

Turning to `Cc1nc2ccc(-c3cc(N)nc(N)c3)nc2n1C[C@@H](C)Oc1nc(F)ccc1F` (single isomer, unassigned) [Example 193], it took 0.028 µM to reach half-maximal inhibition (IC50).

Consider `Cc1nc2ccc(-c3cc(N)nc(N)c3)nc2n1CC1CCCOC1` (stereo not drawn) [Example 76, 4-[2-methyl-3-(tetrahydro-2H-pyran-3-ylmethyl)-3H-imidazo[4,5-b]pyridin-5-yl]pyridine-2,6-diamine], for which the IC50 is 0.04 µM.

On to `Cc1nc2ccc(-c3cc(F)nc(N)c3F)nc2n1C1CC1` [Example 241, 4-(3-cyclopropyl-2-methyl-3H-imidazo[4,5-b]pyridin-5-yl)-3,6-difluoropyridin-2-amine], for which the IC50 came out at 0.098 µM.

In turn, `Cc1nc2ccc(-c3cc(N)nc(N)c3)nc2n1[C@H](C)COc1ccccc1` (single isomer, unassigned) [Example 104] displayed an IC50 of 0.045 µM.

Compound `Cc1nc2ccc(-c3cc(N)nc(N)c3)nc2n1CCOc1ncccn1` [Example 219, 4-{2-methyl-3-[2-(pyrimidin-2-yloxy)ethyl]-3H-imidazo[4,5-b]pyridin-5-yl}pyridine-2,6-diamine] came in with a half-maximal inhibitory concentration (IC50) of 0.04 µM.

Take `Cc1nc2ccc(-c3cc(N)nc(N)c3)nc2n1C[C@@H](C)Oc1ccc(Br)cn1` [Example 187]: the half-maximal inhibitory concentration (IC50) was found to be 0.082 µM.

For `CCOc1ccccc1OCCn1c(C)nc2ccc(-c3cc(N)nc(N)c3)nc21` [Example 215, 4-{3-[2-(2-ethoxyphenoxy)ethyl]-2-methyl-3H-imidazo[4,5-b]pyridin-5-yl}pyridine-2,6-diamine], the IC50 is 0.066 µM.

With `Cc1cccc(OCCn2c(C)nc3ccc(-c4cc(N)nc(N)c4)nc32)c1` [Example 201, 4-{2-methyl-3-[2-(3-methylphenoxy)ethyl]-3H-imidazo[4,5-b]pyridin-5-yl}pyridine-2,6-diamine], the midpoint of inhibition, the IC50, lay at 0.021 µM. Compared with the last compound, the IC50 is about 3.1-fold lower.

In turn, `Cc1nc2ccc(-c3cc(N)nc(N)c3)nc2n1CCC1CCCCC1C` (stereo not drawn) [Example 102, 4-{2-methyl-3-[2-(2-methylcyclohexyl)ethyl]-3H-imidazo[4,5-b]pyridin-5-yl}pyridine-2,6-diamine] registered an IC50 of 0.017 µM.

Take `Cc1nc2ccc(-c3cc(N)nc(N)c3)nc2n1CC1CCOCC1` [Example 80, 4-[2-methyl-3-(tetrahydro-2H-pyran-4-ylmethyl)-3H-imidazo[4,5-b]pyridin-5-yl]pyridine-2,6-diamine]: the IC50 worked out at 0.043 µM.

For `Cc1nc2ccc(-c3c(F)c(N)nc(N)c3F)nc2n1C1CC1` [Example 242, 4-(3-cyclopropyl-2-methyl-3H-imidazo[4,5-b]pyridin-5-yl)-3,5-difluoropyridine-2,6-diamine], the 50% inhibitory concentration (IC50) is 0.154 µM.

As to `COc1ccc(C)cc1OCCn1c(C)nc2ccc(-c3cc(N)nc(N)c3)nc21` [Example 211, 4-{3-[2-(2-methoxy-5-methylphenoxy)ethyl]-2-methyl-3H-imidazo[4,5-b]pyridin-5-yl}pyridine-2,6-diamine], the IC50 was found to be 0.049 µM.

For `Cc1nc2ccc(-c3cc(N)nc(N)c3)nc2n1C[C@@H](C)Oc1ncccc1Cl` (single isomer, unassigned) [Example 191], half-maximal inhibition (IC50) required 0.2 µM.

Compound `Cc1nc2ccc(-c3cc(N)nc(N)c3)nc2n1C(C)Cc1ccco1` (stereo not drawn) [Example 82, 4-{3-[1-(furan-2-yl)propan-2-yl]-2-methyl-3H-imidazo[4,5-b]pyridin-5-yl}pyridine-2,6-diamine] showed a half-maximal inhibitory concentration (IC50) of 0.096 µM.
